What was measured:
mature MHV M^pro = mature MHV M^pro (Murine hepatitis virus strain A59, UniProt P0C6X9); test: fluorogenic peptide cleavage; format: biochemical
in vitro = settings: human, caco-2 cells
mature SARSCoV2 M^pro = mature SARSCoV2 M^pro (Severe acute respiratory syndrome coronavirus 2, UniProt P0DTD1); test: biochemical

Sequence of mature MHV M^pro (P0C6X9 3334-3635): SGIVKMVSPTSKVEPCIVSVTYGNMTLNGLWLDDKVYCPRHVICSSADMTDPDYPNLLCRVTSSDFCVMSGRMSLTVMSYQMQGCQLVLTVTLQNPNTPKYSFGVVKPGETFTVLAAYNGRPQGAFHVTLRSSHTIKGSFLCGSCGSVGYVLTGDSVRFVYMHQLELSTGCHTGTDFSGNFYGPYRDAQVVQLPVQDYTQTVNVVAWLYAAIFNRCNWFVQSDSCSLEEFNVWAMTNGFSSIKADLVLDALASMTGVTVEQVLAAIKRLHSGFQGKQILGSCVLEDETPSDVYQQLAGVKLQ

Structure (SMILES)	IC50 (mature MHV M^pro) [µM]	CC50 (in vitro) [µM]	IC50 (mature SARSCoV2 M^pro) [µM]
CC(C)(C)NC(=O)N[C@H](C(=O)N1C[C@H]2[C@@H]([C@H]1C(=O)N[C@@H](C[C@@H]1CCNC1=O)C(=O)C(N)=O)C2(C)C)C(C)(C)C [ML1000]	0.13 ± 0.025	> 100	–
CC(C)C[C@H](NC(=O)OCc1ccccc1)C(=O)N[C@@H](C[C@@H]1CCNC1=O)C(O)S(=O)(=O)O (some centres unmarked) [GC-376]	–	> 100	–
CC(C)(C)NC(=O)N[C@H](C(=O)N1C[C@@H]2CCC[C@@H]2[C@H]1C(=O)N[C@@H](C[C@@H]1CCNC1=O)C(=O)C(N)=O)C(C)(C)C [ML1100]	0.301 ± 0.152	> 100	0.147 ± 0.008
CC(C)(C)NC(=O)N[C@H](C(=O)N1C[C@H]2[C@@H]([C@H]1C(=O)NC(CC1CCC1)C(=O)C(N)=O)C2(C)C)C(C)(C)C (some centres unmarked) [boceprevir]	15 ± 7	> 100	–

From paper doi:10.1101/2020.09.15.275891v2 (biorxiv, 2020)
